# Test results reported in ChEMBL document CHEMBL1201862, “PubChem BioAssay data set” (2004).
# Calls of active or inactive are those of the source.
# Key:
# [1] = cytotoxicity toward NIH3T3 fibroblasts, dose response, counter-screen, cell-based, ATP luminescence, mouse fibroblasts (AID 2010); format: functional;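 further: cells exposed to compound for about 90 hours before reading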
# [2] = inhibitors of intracellular T. cruzi replication, confirmation, NIH3T3 host cells, beta-gal luminescence (AID 2044); format: functional, cell-based;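 further: intracellular parasites grown in NIH/3T3 mouse fibroblasts as host cells; luminescent beta-galactosidase reporter signal from transgenic T. cruzi replicating inside host cells; inhibitors lower the luminescence signal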
# [3] = Luminescence Cell-Based Dose Response HTS to Identify Activators of Luciferase Translation or Activity in H4 […] Cells. [Related pubchem assays: 1829 (Project Summary), 1814 (Primary HTS)]; format: functional
# H4 = assay: Luminescence Cell-Based Dose Response HTS to Identify Activators of 5'UTR Stem-Loop Driven Prion Protein mRNA Translation in H4 Neuroglioblastoma Cells. [Related pubchem assays: 1829 (Project Summary), 1814 (Primary HTS)]; format: functional; conditions: Homo sapiens
# Streptococcus = assay: Group A Streptococcus viability loss, dose response, counter-screen for streptokinase expression inhibitor project, luminescence, BacTiterGlo (AID 1915); format: functional, organism-based;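 further: potency for reduction of bacterial viability or growth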
# Streptokinase A = biological target: T1, Streptokinase A (Streptococcus pyogenes serotype M1, UniProt P10520); assay: S. pyogenes streptokinase expression inhibitors, potency, dose response, plasminogen activation absorbance, OD405 (AID 1914); format: functional, Streptococcus pyogenes M1 GAS;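 further: secreted streptokinase activity via plasminogen activation per viability signal from cell pellet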
# T1 sequence (P10520 whole entry): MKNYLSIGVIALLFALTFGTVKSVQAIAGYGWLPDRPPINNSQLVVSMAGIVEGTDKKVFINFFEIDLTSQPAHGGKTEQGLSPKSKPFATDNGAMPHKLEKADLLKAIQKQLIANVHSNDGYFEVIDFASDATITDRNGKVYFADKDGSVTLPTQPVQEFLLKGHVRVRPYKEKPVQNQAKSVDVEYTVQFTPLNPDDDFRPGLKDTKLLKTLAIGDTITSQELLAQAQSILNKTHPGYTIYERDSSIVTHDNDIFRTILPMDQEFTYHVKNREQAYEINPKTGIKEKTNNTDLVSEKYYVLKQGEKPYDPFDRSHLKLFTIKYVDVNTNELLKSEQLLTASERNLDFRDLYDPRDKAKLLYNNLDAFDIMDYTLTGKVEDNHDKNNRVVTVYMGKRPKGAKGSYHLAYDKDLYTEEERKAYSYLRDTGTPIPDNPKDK
# [4] = system: Streptococcus sp. 'group A'; assay: growth inhibition of control SK(-) GAS strain, dose response, counter-screen for streptokinase expression inhibitor project, luminescence, kanamycin, BacTiterGlo, confirmation (AID 1900); format: functional, organism-based
# Cytochrome P450 3A4 = Cytochrome P450 3A4 (Homo sapiens, UniProt P08684);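 further: CYP3A4 tested as one member of a cytochrome P450 panel screen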
# Cytochrome P450 3A4, sequence (P08684 whole entry): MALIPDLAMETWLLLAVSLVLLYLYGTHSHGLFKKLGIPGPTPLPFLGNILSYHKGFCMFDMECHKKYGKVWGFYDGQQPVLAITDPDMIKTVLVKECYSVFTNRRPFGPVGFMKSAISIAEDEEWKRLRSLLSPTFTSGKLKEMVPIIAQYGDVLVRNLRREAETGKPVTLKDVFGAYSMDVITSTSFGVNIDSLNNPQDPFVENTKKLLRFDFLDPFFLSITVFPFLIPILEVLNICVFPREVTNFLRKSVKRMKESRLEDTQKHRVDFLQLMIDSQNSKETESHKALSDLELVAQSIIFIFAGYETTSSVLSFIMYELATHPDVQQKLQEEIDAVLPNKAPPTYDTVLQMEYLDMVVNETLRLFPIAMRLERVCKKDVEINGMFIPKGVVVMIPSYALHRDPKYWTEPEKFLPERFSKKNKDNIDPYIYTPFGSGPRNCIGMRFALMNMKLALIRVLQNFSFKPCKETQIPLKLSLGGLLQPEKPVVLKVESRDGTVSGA
# Cytochrome P450 2D6 = Cytochrome P450 2D6 (Homo sapiens, UniProt P10635);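 further: CYP2D6 member of a cytochrome P450 panel assay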
# Cytochrome P450 2D6, sequence (P10635 whole entry): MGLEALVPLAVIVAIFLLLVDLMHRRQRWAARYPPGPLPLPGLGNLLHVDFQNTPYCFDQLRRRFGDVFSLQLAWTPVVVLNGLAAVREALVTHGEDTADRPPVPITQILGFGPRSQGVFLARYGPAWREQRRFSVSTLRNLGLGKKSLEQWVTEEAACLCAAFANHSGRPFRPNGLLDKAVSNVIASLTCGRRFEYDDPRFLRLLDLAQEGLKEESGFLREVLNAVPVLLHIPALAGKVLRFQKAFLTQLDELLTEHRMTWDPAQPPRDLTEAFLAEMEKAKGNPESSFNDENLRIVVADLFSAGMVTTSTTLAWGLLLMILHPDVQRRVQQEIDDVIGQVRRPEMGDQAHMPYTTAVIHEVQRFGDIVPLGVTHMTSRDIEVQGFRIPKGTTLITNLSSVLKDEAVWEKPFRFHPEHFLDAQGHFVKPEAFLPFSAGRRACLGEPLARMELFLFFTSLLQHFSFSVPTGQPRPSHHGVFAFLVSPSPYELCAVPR
# Cytochrome P450 2C19 = Cytochrome P450 2C19 (Homo sapiens, UniProt P33261); assay: Cytochrome panel assay with activity outcomes. Panel member name: p450-cyp2c19 Compounds with AC50 equal or less than 10 uM are considered active; format: functional
# Cytochrome P450 2C19, sequence (P33261 whole entry): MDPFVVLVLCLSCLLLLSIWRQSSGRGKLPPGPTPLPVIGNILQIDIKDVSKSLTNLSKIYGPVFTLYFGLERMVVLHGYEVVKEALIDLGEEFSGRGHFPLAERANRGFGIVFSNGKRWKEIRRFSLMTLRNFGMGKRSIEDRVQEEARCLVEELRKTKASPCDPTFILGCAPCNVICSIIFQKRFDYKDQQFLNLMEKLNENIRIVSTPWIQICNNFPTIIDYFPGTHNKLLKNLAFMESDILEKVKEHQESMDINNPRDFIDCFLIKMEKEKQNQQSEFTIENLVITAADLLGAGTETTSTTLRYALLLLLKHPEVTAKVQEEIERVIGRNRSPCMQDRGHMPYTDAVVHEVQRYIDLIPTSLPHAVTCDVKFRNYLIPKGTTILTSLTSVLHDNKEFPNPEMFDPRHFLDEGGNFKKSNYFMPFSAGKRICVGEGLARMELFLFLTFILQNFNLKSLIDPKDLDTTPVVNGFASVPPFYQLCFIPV
smiles,measurement,setting,value
Cc1cc2nc(CCN(Cc3cccnc3)C(S)=Nc3ccc(F)cc3)[nH]c2cc1C,EC50,[1],> 30 µM (not active)
same,EC50,[2],0.844 µM (active)
Cc1ccc(-c2onc3ccc(C4OCCO4)cc23)cc1,EC50,[3],28.4 µM (active)
same,EC50,H4,25 µM (active)
O=C(CSc1cccc[n+]1[O-])c1cc2ccccc2o1,EC50,[1],> 60 µM (not active)
same,EC50,[2],11.3 µM (active)
O=C(NC(=S)Nc1ccc(N2CCOCC2)c(Cl)c1)c1cccs1,EC50,Streptococcus,15.8 µM (active)
same,EC50,Streptokinase A,> 150 µM (not active)
same,EC50,[4],11 µM (active)
O=C(CCc1nnc(CCCCc2ccccc2)o1)NCCc1cccnc1,EC50,[1],> 60 µM (not active)
same,EC50,[2],2.27 µM (active)
CCN1CCN(c2ccc(S(=O)(=O)N3CCOCC3)cc2NC(=O)c2ccc(Cl)s2)CC1,EC50,[1],> 30 µM (not active)
same,EC50,[2],0.588 µM (active)
Oc1ccc(Cc2cc(Cl)cc(Cl)c2O)cc1Cl,AC50,Cytochrome P450 3A4,3.98 µM (inconclusive)
same,AC50,Cytochrome P450 2D6,7.94 µM (inconclusive)
Cc1ccc(C(=O)N(C)c2ccc(OCC(=O)N3c4ccc(C)cc4C4CN(C)CCC43)cc2)cc1 (stereo not given),EC50,[1],> 60 µM (not active)
same,EC50,[2],0.527 µM (active)
COc1ccc(/C=C2\Sc3ccc(C(=O)N4CCCC4)cc3N(C)C2=O)cc1OC,EC50,Streptococcus,8.27 µM (active)
same,EC50,Streptokinase A,> 150 µM (not active)
same,EC50,[4],0.555 µM (active)
Cc1sc2c(c1C)c(=O)n(-c1ccccc1)c1nnc(C)n21,AC50,Cytochrome P450 2C19; read-out: AC50,8.91 µM (inconclusive)
COc1ccc(-c2ccc(C(=S)N3CCN(C(C)=O)CC3)o2)cc1,AC50,Cytochrome P450 2D6,28.2 µM (inconclusive)
O=S(=O)(Cc1cc(Sc2ccc(Cl)cc2)nc(-c2ccccc2)n1)c1ccccc1,EC50,[1],> 60 µM (not active)
same,EC50,[2],2.93 µM (active)
COC(=O)Cc1c[nH]c2cccc(OCC(O)CN(Cc3ccc([N+](=O)[O-])cc3)C(C)(C)C)c12 (stereo not given),EC50,[1],> 60 µM (not active)
same,EC50,[2],2.83 µM (active)
CNC(=O)c1sc(SC)cc1-c1ccc(Cl)cc1,AC50,Cytochrome P450 2D6,25.1 µM (inconclusive)
OC(COCCC12CC3CC(CC(C3)C1)C2)CN1CCCCC1 (stereo not given),EC50,[1],> 60 µM (not active)
same,EC50,[2],0.228 µM (active)
COc1ccc(C(=O)NCC(c2ccc(F)cc2)N2CCOCC2)cc1S(=O)(=O)N1CCCC1 (stereo not given),AC50,Cytochrome P450 2D6,15.8 µM (inconclusive)
O=S(=O)(Nc1ccc(N=Nc2ccc(O)c3ccccc23)cc1)c1ccccc1,EC50,Streptococcus,41.5 µM (active)
same,EC50,Streptokinase A,18.7 µM (active)
same,EC50,[4],7.71 µM (active)
Cn1c(=O)c(C(=O)NNC(=O)c2ccccc2Br)c(O)c2ccccc21,EC50,Streptococcus,18.7 µM (active)
same,EC50,Streptokinase A,> 150 µM (not active)
same,EC50,[4],4.72 µM (active)
CCOC(=O)C1CCCN(c2ncnc3c2cnn3-c2cccc(C)c2)C1 (stereo not given),AC50,Cytochrome P450 2C19; read-out: AC50,20 µM (inconclusive)
same,AC50,Cytochrome P450 3A4,28.2 µM (inconclusive)
CCc1ccc(Oc2nc([N+](=O)[O-])nn2C)cc1,EC50,[1],> 30 µM (not active)
same,EC50,[2],0.438 µM (active)
Cc1[nH]c2ccccc2c1C(=O)CSc1nc2ccccc2c(=O)n1CCCN1CCOCC1,EC50,[3],> 120 µM (not active)
same,EC50,H4,> 120 µM (not active)
CN(Cc1ccccc1)C(=O)C1CCCN(Cc2cccc(Cl)c2)C1 (stereo not given),EC50,[1],> 60 µM (not active)
same,EC50,[2],0.11 µM (active)
COC(=O)Cc1c(OC)ccn(CCc2c[nH]c3ccccc23)c1=O,EC50,H4,> 120 µM (not active)
COCCn1c(=O)c(-c2cccs2)nc2cnc(Oc3ccc(OC)cc3)nc21,AC50,Cytochrome P450 2C19; read-out: AC50,15.8 µM (inconclusive)
CC(C)C[C@@H](N)C(=O)Nc1ccc2ccccc2c1,AC50,Cytochrome P450 2C19; read-out: AC50,2.51 µM (inconclusive)
same,AC50,Cytochrome P450 3A4,2.51 µM (inconclusive)
same,AC50,Cytochrome P450 2D6,3.16 µM (inconclusive)
CC(CCc1ccccc1)N1CCN(Cc2ccccc2)CC1 (stereo not given),EC50,[1],10.2 µM (active)
same,EC50,[2],0.101 µM (active)
C=CCNC(=O)c1ccccc1NC(=O)c1ccc(Cl)c(S(=O)(=O)Nc2cc(C)ccc2C)c1,EC50,Streptococcus,> 150 µM (not active)
same,EC50,Streptokinase A,41.7 µM (active)
same,EC50,[4],24.8 µM (active)
c1ccc(COc2ccc(-c3csnn3)cc2)cc1,EC50,[3],0.11 µM (active)
same,EC50,H4,1.64 µM (active)
O=c1c(-c2ccc(F)cc2)nc2cnc(N3CCNCC3)nc2n1C1CC1,AC50,Cytochrome P450 2C19; read-out: AC50,39.8 µM (inconclusive)
O=c1c(-c2ccc(Cl)cc2)nc2cnc(N3CCNCC3)nc2n1Cc1cccs1,AC50,Cytochrome P450 2C19; read-out: AC50,25.1 µM (inconclusive)
C[C@H]1CC[C@@]2(NC1)O[C@@H]1C[C@H]3[C@@H]4CC[C@@H]5C[C@@H](O)CC[C@@]5(C)[C@@H]4CC[C@]3(C)[C@@H]1[C@@H]2C,AC50,Cytochrome P450 2C19,inconclusive
COc1cc([N+](=O)[O-])c(N2CCOCC2)c([N+](=O)[O-])c1OC,EC50,[1],> 60 µM (not active)
same,EC50,[2],7.53 µM (active)
Cc1ccc(C(=N)NOC(=O)CSc2ccccc2)cc1,EC50,[3],0.514 µM (active)
Cc1ccc(CN(C)CCc2ccccn2)cc1,EC50,[1],> 60 µM (not active)
same,EC50,[2],0.309 µM (active)
C=C(C)CNC(=S)NNC(=O)CCn1c2ccc(Cl)cc2c2cc(Cl)ccc21,EC50,Streptokinase A,> 150 µM (not active)
CNc1ncnc2ccc(-c3ccccc3CN(C)C)cc12,AC50,Cytochrome P450 2C19; read-out: AC50,20 µM (inconclusive)
CN(C)c1ccc(-c2cncnc2NCc2ccccc2)cc1,AC50,Cytochrome P450 2D6,39.8 µM (inconclusive)
COC(=O)C1CCN(CC(=O)Nc2cc(Cl)ccc2OC)CC1,EC50,[1],> 30 µM (not active)
same,EC50,[2],4.18 µM (active)
COc1ccc(C(CNC(=O)c2cccc(S(=O)(=O)Nc3ccccc3Cl)c2)N2CCOCC2)cc1 (stereo not given),EC50,Streptococcus,104 µM (active)
same,EC50,Streptokinase A,> 150 µM (not active)
COCCNc1nc(-c2c(C)noc2C)nc2ccccc12,AC50,Cytochrome P450 3A4,15.8 µM (inconclusive)
CCC(C)C(=O)N1CCCC(c2nc(-c3cccs3)no2)C1 (stereo not given),EC50,[3],> 120 µM (not active)
same,EC50,H4,71.6 µM (active)
O=[N+]([O-])c1cccc(-c2nc(-c3ccccc3)c(-c3cccs3)[nH]2)c1,AC50,Cytochrome P450 2D6,4.47 µM (inconclusive)
c1ccc(COc2ccccc2CNCc2cccnc2)cc1,EC50,[1],> 60 µM (not active)
same,EC50,[2],8.11 µM (active)
c1ccc(CN2CCN(c3nc4ccccc4c4ccccc34)CC2)cc1,EC50,Streptococcus,> 150 µM (not active)
same,EC50,Streptokinase A,14.9 µM (active)
same,EC50,[4],15.9 µM (active)
OC(COCC1COc2ccccc2O1)CN1CCc2ccccc2C1 (stereo not given),AC50,Cytochrome P450 3A4,17.8 µM (inconclusive)
CC(C)N1CCc2c(sc(NC(=O)CCS(=O)(=O)c3ccccc3)c2C#N)C1,EC50,Streptococcus,> 150 µM (not active)
same,EC50,Streptokinase A,> 150 µM (not active)
same,EC50,[4],> 150 µM (not active)
COc1ccc(-n2c(=O)c(C)nc3cnc(N(C)C)nc32)cc1,AC50,Cytochrome P450 3A4,20 µM (inconclusive)
CCOC(=O)CC(NC(=O)c1cccs1)c1ccc(OCC)cc1 (stereo not given),AC50,Cytochrome P450 2D6,14.1 µM (inconclusive)
CC(=O)Nc1ccc(S(=O)(=O)N2CCC(N(C)CCC(C)C)CC2)cc1,AC50,Cytochrome P450 2C19; read-out: AC50,25.1 µM (inconclusive)
CN(C)/C=N/c1cnc(C(=O)c2ccc(Cl)cc2)n1C,EC50,H4,0.52 µM (active)
CCSC(=N)Nc1ccc(C(F)(F)F)cc1,AC50,Cytochrome P450 2C19; read-out: AC50,20 µM (inconclusive)
same,AC50,Cytochrome P450 3A4,39.8 µM (inconclusive)
CCOC(=O)c1c2c(n3ccccc13)C(=O)c1ccccc1C2=O,AC50,Cytochrome P450 3A4,3.16 µM (inconclusive)
COc1ccccc1CNc1ncncc1-c1ccc(C(=O)N(C)C)cc1,AC50,Cytochrome P450 2D6,39.8 µM (inconclusive)
CCOc1ccc(Nc2nc(N3CCCCC3)nc(N3CCCCC3)n2)cc1,EC50,Streptococcus,54.1 µM (active)
same,EC50,Streptokinase A,> 150 µM (not active)
same,EC50,[4],0.648 µM (active)
